Values of other authors in US20220096371A1, “BIODEGRADABLE MICRONEEDLE SYSTEM WITH SUSTAINED RELEASE” (University of Connecticut, priority 2020, published 2022).

[1] = 81 mg ASA oral pill, by HPLC, used as target for MN system

SMILES: CC(=O)Oc1ccccc1C(=O)O [ASA, acetylsalicylic acid]
- ACU (area under the curve) [1]: ~865 ng/ml.hr
- average daily plasma concentration [1]: ~100 ng/mL
- bioavailability (oral use): ~20%
